US8653023B1, “Dual beneficial effect of dopamine enhancing and neuroprotective actions of PKC delta inhibitors for treatment of Parkinson's disease” (Iowa State University Research Foundation, Inc., priority 2006, dated 2014)
Where two headings read alike, the source gives them in different places.

What was measured:
[1] = biological target: CAM kinase III (Homo sapiens, UniProt O00418); settings: cited from earlier work
[2] = tested on: MPTP-treated C57 black mice; experiment: TH+ neuron count in substantia nigra pars compacta of MPTP mice (stereology); type: in vivo
Description: (§1) Six to 8-week-old […] mice weighing 30 g were housed in standard conditions: constant temperature (22±1° C.), humidity (relative, 30%) and a 12-h light/dark cycle, and were allowed free access to food and water. The animals and protocol procedures were approved and supervised by the Committee on Animal Care (COAC) at the Iowa State University. Rottlerin was dissolved in 1% dimethyl sulfoxide (DMSO) and was administered intraperitoneally at various doses. An equal volume of DMSO was given to controls. Rottlerin and DMSO administrations were started 24 h before the injections of the MPTP and continued for 5 days in the MPTP model. In the chronic regimens of MPTP administration, MPTP in phosphate-buffered saline (PBS) was injected intraperitoneally at doses of 30 mg/kg, once a day. Mice were sacrificed 2 days after the MPTP injections, and the striata were dissected for catecholamine analysis. Additionally, rottlerin alone (0.3-20 mg/kg) was administered via intraperitoneally or orally and then brain tissues were subjected to neurochemical analyses (FIG. 8). The mesencephalons were fixed in 4% paraformaldehyde for 5 days for tyrosine hydroxylase (TH) immunostaining.
Brains removed following cervical dislocation were post-fixed in paraformaldehyde and used for TH immunolabelling and stereological studies. Fixed brains were cut into 30-μm sections and collected in cryoprotectant. Sections were rinsed in PBS at room temperature before immunostaining, then incubated with a anti-TH antibody as described (Thiruchelvam, McCormack et al. 2003; Thiruchelvam, Powers et al. 2004). The total number of TH^+ and TH Nissl-stained neurons in the SNpc were counted using the optical fractionator and previously described counting criteria (Thiruchelvam, McCormack et al. 2003; Thiruchelvam, Powers et al. 2004). After delineation of the region at low magnification (4× objective), every fourth section from the entire substantia nigra was sampled at higher magnification (100× objective) using StereoImager (Microbrightfield, Vt.).

[3] = tested on: MPTP-treated C57 black mice; experiment: TH protein level in SN of MPTP-treated mice (Western blot); type: in vivo; settings: all doses of rottlerin, MPTP 30 mg/kg 5 days
Description: as §1, with “Additionally, rottlerin alone (0.3-20 mg/kg) was administered via intraperitoneally or orally and then brain tissues were subjected to neurochemical analyses (FIG. 8). The mesencephalons were fixed in 4% paraformaldehyde for 5 days for tyrosine hydroxylase (TH) immunostaining.” left out
brain lysates containing equal amounts of protein were loaded in each lane and separated on a 10-12% SDS-PAGE gel as described previously (Kaul, Kanthasamy et al. 2003). […] Secondary antibody-bound proteins were detected using Amersham's ECL chemiluminescence kit. […] Western blot images were captured with a Kodak […] imaging system and data were analyzed using 1D Kodak imaging analysis software.

[4] = tested on: tyrosine hydroxylase (TH); experiment: TH phosphorylation in N27 cells (Western blot, immunofluorescence); type: cell-based, rat; settings: N27 cells
Description: (§2) PC12 cells, differentiated N27 dopaminergic cells and primary mesencephalic neurons were exposed to 1-10 μM rottlerin for the duration of the experiment. DMSO (0.01%) was used as vehicle control. PKCδ-DN- and Lac Z-expressing N27 cells were only treated with 0.01% DMSO. […] Untreated or vehicle treated cells were used as control samples.
(§3) Cell and brain lysates containing equal amounts of protein were loaded in each lane and separated on a 10-12% SDS-PAGE gel as described previously (Kaul et al., 2003). After the separation, proteins were transferred to nitrocellulose membrane, and nonspecific binding sites were blocked by treating with 5% nonfat dry milk powder. The membranes were then treated with primary antibodies directed against PKCδ (rabbit polyclonal or mouse monoclonal, 1:2000 dilution), TH (rabbit polyclonal or mouse monoclonal, 1:1000), phospho TH-ser40 (rabbit polyclonal, 1:1000), phospho TH-ser31 TH (rabbit polyclonal, 1:1000), or PP2A (mouse monoclonal, 1:1000). The primary antibody treatments were followed by treatment with secondary HRP-conjugated anti-rabbit or anti-mouse IgG (1:2000) for 1 hr at RT. Secondary antibody-bound proteins were detected using Amersham's ECL chemiluminescence kit. To confirm equal protein loading, blots were reprobed with a β-actin antibody (1:5000 dilution). Western blot images were captured with a Kodak 2000 MM imaging system and data were analyzed using 1D Kodak imaging analysis software.
(§4) Immunostaining of PKCδ, TH, Ser40 P-TH and Ser31 P-TH was performed in PC12, N27 and primary mesencephalic neurons. Cells were grown on poly-L-Lysine-coated glass cover slips. After treatment, the cells were fixed with 4% paraformaldehyde and processed for immunohistochemical staining. First, non-specific sites were blocked with 5% normal goat serum containing 0.4% BSA and 0.2% Triton-X 100 in PBS for 20 min. Cells were then incubated with antibodies directed against PKCδ (1:500 dilution), TH (1:500 dilution), and P-THSer40 (1:500 dilution) overnight at 4° C. followed by incubation with either Alexa 488-conjugated (green, 1:1000) or Cy3-conjugated (red, 1:1000) secondary antibody for 1 hr at RT. Secondary antibody treatments were followed by incubation with Hoechst 33342 (10 μg/ml) for 3 min at room temperature to stain the nucleus. Then the coverslips containing stained cells were washed with PBS, mounted on a slide, and viewed under a Nikon inverted fluorescence microscope (Model TE-2000U); images were captured with a SPOT digital camera (Diagnostic Instruments, Sterling Heights, Mich.).

[5] = tested on: tyrosine hydroxylase (TH); experiment: TH phosphorylation in PC12 cells (immunoblot, immunofluorescence); type: cell-based; settings: 3 μM rottlerin for 3 hr
Description: as §2, §3, §4

[6] = tested on: macrophages; settings: pretreatment, cited from earlier work

Chain of CAM kinase III (O00418 whole entry): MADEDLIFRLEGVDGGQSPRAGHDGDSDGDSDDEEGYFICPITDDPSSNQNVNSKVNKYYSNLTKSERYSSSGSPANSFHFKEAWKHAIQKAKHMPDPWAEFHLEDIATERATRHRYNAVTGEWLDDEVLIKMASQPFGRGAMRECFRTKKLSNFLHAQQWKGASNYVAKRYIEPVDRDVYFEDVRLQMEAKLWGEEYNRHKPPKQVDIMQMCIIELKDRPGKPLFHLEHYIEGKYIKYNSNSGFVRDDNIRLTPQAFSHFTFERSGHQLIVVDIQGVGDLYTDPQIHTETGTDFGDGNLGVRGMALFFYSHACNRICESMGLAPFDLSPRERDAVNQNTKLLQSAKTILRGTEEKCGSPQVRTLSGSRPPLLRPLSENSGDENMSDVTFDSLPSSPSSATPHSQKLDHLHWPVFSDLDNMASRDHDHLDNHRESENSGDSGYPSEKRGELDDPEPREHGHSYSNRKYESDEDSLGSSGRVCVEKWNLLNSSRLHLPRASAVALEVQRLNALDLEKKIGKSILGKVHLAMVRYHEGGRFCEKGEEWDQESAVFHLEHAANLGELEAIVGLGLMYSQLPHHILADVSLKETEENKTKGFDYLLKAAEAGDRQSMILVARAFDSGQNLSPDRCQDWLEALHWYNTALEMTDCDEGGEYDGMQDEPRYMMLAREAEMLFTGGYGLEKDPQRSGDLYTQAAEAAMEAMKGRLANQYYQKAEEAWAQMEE

SMILES: CC(=O)c1c(O)c(C)c(O)c(Cc2c(O)c3c(c(C(=O)/C=C/c4ccccc4)c2O)OC(C)(C)C=C3)c1O [rottlerin]
- inhibiting concentration [1]: 3 to 6 µM
- protective effect against SNpc cell loss ([2]; cotreatment with 20 mg/kg rottlerin): 37%
- cell loss in SNpc ([2]; cotreatment with 20 mg/kg rottlerin and MPTP 30 mg/kg): 13%
- TH protein level in SN [3]: attenuate loss of TH protein
- level of total TH [4]: unaltered
- TH-ser40 phosphorylation, densitometry of 60 kDa band, increase versus vehicle [5]: 3 fold
- THser31 phosphorylation level [5]: unaltered
- level of total TH [5]: unaltered
- increase in TH-ser40 stained cells compared to DMSO-treated cells ([5]; immunofluorescence cell count): 333%
- suppression of UV-B-induced DNA fragmentation ([6]; 1 μM): approximately 30%
- suppression of UV-B-induced DNA fragmentation ([6]; 10 μM): ~50%
